Experimental data: patent publication US8236523B2, “Camp reporters and high throughput assays” (The Johns Hopkins University, priority 2004, dated 2012)

Legend:
Type in all cases: cell-based
[1] = system: cAMP; assay: 96-well live cell plate reading of HEK293 cells expressing ICUE3; details: HEK293 cells expressing ICUE3, 1 μM ISO, 50 μM FSK
Protocol: Plate reading used a 420DF20 excitation filter and two emission filters (470DF40 for cyan and 535DF25 for yellow). A baseline was established in three cycles, each consisting of a full plate reading of yellow intensity, followed by a reading of cyan intensity. Cells were then treated with isoproterenol (ISO; Aldrich), forskolin (Calbiochem), H89, propranolol, and 3-isobutyl-1-methylxanthine (IBMX) as indicated. Readings were taken in six or twenty additional cycles. Each cycle lasted 60 to 145 sec. Baseline FRET ratios were calculated as the average ratio of yellow/cyan for each well before the addition of drug. FRET change was calculated as the percent increase of FRET ratio over baseline for each well during a given cycle. The FRET changes of all wells having undergone the same drug treatment were then averaged within each cycle, and that cycle was correlated with time.
Live cell plate reading. HEK293 cells were transfected with cDNA encoding ICUE reporters using calcium phosphate at 40% confluency and allowed to grow for 40 hours. Cells were then trypsinized and plated in a Costar 3603 96-well assay plate (Coming) at a density of 150,000 cells per well. After incubation for another 24 hours, cells were washed once with HBSS and left in 150 μl HBSS at 20-25° C. Fluorescence reading was taken on a FLUOstar OPTIMA fluorescence microplate reader (BMG Labtechnologies Inc.) using a 420DF20 excitation filter and two emission filters (470DF40 for cyan and […] for yellow). A baseline was established in three cycles, each consisting of a full plate reading of yellow intensity, followed by a reading of cyan intensity. Each cycle lasted between 64 and 145 seconds. Readings were taken in additional cycles. FRET change was calculated as the percent increase of emission ratios (cyan-to-yellow) over baseline for each well during a given cycle. To assess the efficacy of the assay, several statistical parameters were calculated, including Z factor, coefficient of variation, and signal-to-noise ratio (Zhang et al., J. Biomol. Screen. 4, 67-73, 1999).

[2] = system: cAMP; assay: High throughput 96-well plate assay using ICUE2 stable HEK293 cells; details: 1 μM Iso, 50 μM Fsk, 10 μM H89, 100 μM IBMX
Protocol: HEK293 cells which stably express ICUE2 (“ICUE2 stable HEK293 cells”) were grown to confluency in 10 cm dishes in DMEM, 10% FBS, 1% penicillin/streptomycin, and 250 μg/ml G418. HEK-293 cells were transfected with cDNA encoding ICUE2 using calcium phosphate at 40% confluency and allowed to grow for 40 hours. Cells were removed from the dish using 0.05% trypsin, spun down, and replaced with fresh media. ICUE2 stable HEK293 cells were counted on a hemocytometer using trypan blue stain. One hundred fifty thousand (150,000) cells were plated per well on a 96-well clear bottom assay plate in a total of 0.2 ml of media per […] and allowed to double once. Media was removed, cells were washed with Hanks buffered salt solution (HBSS) and then covered with 0.05 ml of HBSS per well. In a separate sterile plate, appropriate drugs were added to each well containing HBSS for a total volume of 0.05 ml. […] A baseline was established in three cycles, each consisting of a full plate reading of yellow intensity, followed by a reading of cyan intensity. Cells were then treated with isoproterenol (ISO; […] Readings were taken in six or twenty additional cycles. […] Baseline FRET ratios were calculated as the average ratio of yellow/cyan for each well before the addition of drug. FRET change was calculated as the percent increase of FRET ratio over baseline for each well during a given cycle. The FRET changes of all wells having undergone the same drug treatment were then averaged within each cycle, and that cycle was correlated with time.

[3] = system: cAMP; assay: Dual-emission ratio (FRET) imaging of Epac-based cAMP reporters (ICUE1 and targeted fusions) in HEK-293 cells; details: HEK293 cells expressing ICUE1; 10 μM ISO, 50 μM FSK, 10 μM PGE1, 300 μM 8-pCPT-2′-O-Me-cAMP; average ± S.E.M
Protocol: Cell Culture. […] Cells were then transfected with FuGENE-6 transfection reagent (Roche) or calcium phosphate and allowed to grow for 12-24 hours before imaging.
Imaging. Cells were washed twice with Hanks' balanced salt solution buffer after 12- to 24-h incubation at 37° C. culture medium. Cells were maintained in buffer in the dark at room temperature with addition of isoproterenol (Aldrich), forskolin (Calbiochem), Prostaglandin E1 (PGE1) (Sigma), and 8-(4-chloro-phenylthio)-2′-O-methyl adenosine 3′,5′-monophosphate (8-pCPT-2′-O-Me-cAMP) (Axxora Biolog) as indicated. Cells were also treated with P-(4,5-dimethoxy-2-nitrobenzyl) adenosine 3′,5′-monophosphate (DMNB-cAMP) (Molecular Probe).
Cells were imaged on a Zeiss Axiovert 200M microscope with a cooled charge-coupled device camera MicroMAX BFT512 (Roper Scientific) controlled by METAFLUOR 6.2 software (Universal Imaging). Dual-emission ratio imaging used a 420DF20 excitation filter, a 450DRLP dichroic mirror and two emission filters (475DF40 for ECFP, 535DF25 for citrine) alternated by a filter changer Lambda 10-2 (Sutter Instruments). Exposure time was 100-500 ms and images were taken every 8-30 s. Fluorescent images were background-corrected by subtracting autofluorescence intensities of untransfected cells (or background with no cells) from the emission intensities of fluorescent cells expressing reporters. The ratios of cyan to yellow emissions were then calculated at different time points and normalized by dividing all ratios by the emission ratio just prior to stimulation therefore setting the basal emission ratio to 1.

## C=C[C@@]1(C)CC(=O)[C@]2(O)[C@@]3(C)[C@@H](O)CCC(C)(C)[C@@H]3[C@H](O)[C@H](OC(C)=O)[C@@]2(C)O1 [forskolin]
[1]; 0 sec., 10 μM PRO, 100 μM IBMX, 10 μM H89
  Average percent FRET response ± standard deviation, 0 sec.: 9.05% ± 3.18%
[1]; 145 sec., 10 μM PRO, 100 μM IBMX, 10 μM H89
  Average percent FRET response ± standard deviation, 145 sec.: 13.0% ± 3.17%
[1]; 290 sec., 10 μM PRO, 100 μM IBMX, 10 μM H89
  Average percent FRET response ± standard deviation, 290 sec.: 14.8% ± 3.35%
[1]; 435 sec., 10 μM PRO, 100 μM IBMX, 10 μM H89
  Average percent FRET response ± standard deviation, 435 sec.: 16.7% ± 3.33%
[1]; 580 sec., 10 μM PRO, 100 μM IBMX, 10 μM H89
  Average percent FRET response ± standard deviation, 580 sec.: 16.8% ± 3.27%
[1]; 725 sec., 10 μM PRO, 100 μM IBMX, 10 μM H89
  Average percent FRET response ± standard deviation, 725 sec.: 17.9% ± 3.63%
[1]; n=7
  maximal response / emission ratio change: 17.9%±3.6%
[2]; cycle 1 (1 cycle = 60 seconds)
  Average percent FRET response ± standard deviation, cycle 1: 0.36% ± 7.51%
[2]; cycle 2 (1 cycle = 60 seconds)
  Average percent FRET response ± standard deviation, cycle 2: 2.67% ± 4.53%
[2]; cycle 3 (1 cycle = 60 seconds)
  Average percent FRET response ± standard deviation, cycle 3: 8.71% ± 6.66%
[2]; cycle 4 (1 cycle = 60 seconds)
  Average percent FRET response ± standard deviation, cycle 4: 15.29% ± 3.37%
[2]; cycle 5 (1 cycle = 60 seconds)
  Average percent FRET response ± standard deviation, cycle 5: 15.23% ± 6.55%
[2]; cycle 6 (1 cycle = 60 seconds)
  Average percent FRET response ± standard deviation, cycle 6: 18.73% ± 3.97%
[2]; cycle 7 (1 cycle = 60 seconds)
  Average percent FRET response ± standard deviation, cycle 7: 20.79% ± 4.6%
[2]; cycle 8 (1 cycle = 60 seconds)
  Average percent FRET response ± standard deviation, cycle 8: 22.82% ± 4.58%
[2]; cycle 9 (1 cycle = 60 seconds)
  Average percent FRET response ± standard deviation, cycle 9: 24.98% ± 3.69%
[2]; cycle 10 (1 cycle = 60 seconds)
  Average percent FRET response ± standard deviation, cycle 10: 23.4% ± 4.53%
[2]; cycle 11 (1 cycle = 60 seconds)
  Average percent FRET response ± standard deviation, cycle 11: 24.46% ± 3.51%
[2]; cycle 12 (1 cycle = 60 seconds)
  Average percent FRET response ± standard deviation, cycle 12: 25.44% ± 2.14%
[2]; cycle 13 (1 cycle = 60 seconds)
  Average percent FRET response ± standard deviation, cycle 13: 24.97% ± 3.91%
[2]; cycle 14 (1 cycle = 60 seconds)
  Average percent FRET response ± standard deviation, cycle 14: 25.6% ± 4.31%
[2]; cycle 15 (1 cycle = 60 seconds)
  Average percent FRET response ± standard deviation, cycle 15: 27.0% ± 1.87%
[2]; cycle 16 (1 cycle = 60 seconds)
  Average percent FRET response ± standard deviation, cycle 16: 25.84% ± 3.57%
[2]; cycle 17 (1 cycle = 60 seconds)
  Average percent FRET response ± standard deviation, cycle 17: 26.32% ± 1.66%
[2]; cycle 18 (1 cycle = 60 seconds)
  Average percent FRET response ± standard deviation, cycle 18: 25.94% ± 3.05%
[2]; cycle 19 (1 cycle = 60 seconds)
  Average percent FRET response ± standard deviation, cycle 19: 25.98% ± 2.13%
[2]; cycle 20 (1 cycle = 60 seconds)
  Average percent FRET response ± standard deviation, cycle 20: 25.51% ± 1.67%
[3]
  increase in the ratio of cyan to yellow emissions (FRET response): 19.6%±1.0
